These results are taken from publication PMC8307317, “Point-Substitution of Phenylalanine Residues of 26RFa Neuropeptide: A Structure-Activity Relationship Study” (Molecules, 2021).

Where two headings read alike, the source gives them in different places. Non-standard residues stand in square brackets, D forms with d. Residues, ends and D or L forms follow the SMILES beside them. No end group written: not given here. *: point of attachment. Phe(4-tBu) = CC(C)(C)c1ccc(C[C@H](N)C(=O)O)cc1; X7 = O=C(C(c1ccc(C(F)(F)F)cc1)N1CCNCC1)*; X4 = COc1ccc(C(C(=O)*)N2CCNCC2)cc1OC; X5 = COc1ccc(C(C(=O)*)N2CCNCC2)cc1; X8 = O=C(C(c1ccccc1F)N1CCNCC1)*; X1 = O=C(C(c1cccnc1)N1CCNCC1)*

Assay [1] concerns the target T1, human QRFPR (hQRFPR) (Homo sapiens, UniProt Q96P65).
T1 construct: expressed in transfected cells; host or cells: CHO cells, stably transfected with hQRFPR (G418 selection) and Gα16 (hygromycin B selection)
T1 sequence (Q96P65 1-431): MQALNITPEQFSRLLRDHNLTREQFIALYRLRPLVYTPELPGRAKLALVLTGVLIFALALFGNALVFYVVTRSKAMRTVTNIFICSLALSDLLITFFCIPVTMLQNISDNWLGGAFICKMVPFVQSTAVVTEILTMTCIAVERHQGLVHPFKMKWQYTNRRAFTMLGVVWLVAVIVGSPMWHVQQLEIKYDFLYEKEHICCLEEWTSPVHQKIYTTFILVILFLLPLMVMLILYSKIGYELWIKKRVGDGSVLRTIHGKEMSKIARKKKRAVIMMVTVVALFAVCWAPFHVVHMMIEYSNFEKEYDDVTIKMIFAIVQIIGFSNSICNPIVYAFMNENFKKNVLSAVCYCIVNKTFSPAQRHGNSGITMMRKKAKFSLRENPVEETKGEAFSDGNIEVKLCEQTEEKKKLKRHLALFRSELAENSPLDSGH
The assay is described as follows: Calcium mobilization assay, agonist mode ([Ca2+]i in Gα16-hQRFPR-transfected CHO cells). Format: cell-based. As to the method: (§1) Stably transfected hQRFPR CHO cells were obtained as previously described. The cells were maintained in F-12 nutrient mixture (Ham-F12) medium supplemented with 10% fetal bovine serum, 2 mM glutamine, and penicillin-streptomycin. Expression of Gα16 cells was maintained using selection antibiotic hygromycin B (200 µg/mL) and that of hQRFPR using geneticin G418 (500 µg/mL) (Life Technologies, Villebon-Sur-Yvette, France) in a humidified 5% CO2 atmosphere at 37 °C.
(§2) Changes in intracellular Ca^2+ concentrations induced by 26RFa(20–26) analogs in CHO-Gα16-hQRFPR-transfected cells were measured on a benchtop scanning fluorometer Flexstation III (Molecular Devices, Sunnyvale, CA, USA) as previously described. Briefly, 96-well assay black plates with clear bottoms (Corning international, Avon, France) were seeded at a density of 40,000 cells/well 24 h prior to assay. For profiling agonistic experiments, cells were loaded with 2 µM Fluo-4 acetoxymethyl ester (AM) (Invitrogen) for 1 h in the presence of 0.01% pluronic acid, washed thrice, and incubated for 30 min with standard HBSS containing 2.5 mM probenecid and 5 mM HEPES. Compounds to be tested were added at final concentrations ranging from 10^−11 to 10^−5 M in HBSS, and the fluorescence intensity was measured during 3 min. To evaluate the antagonistic potency of the test compounds, cells were incubated with each compound over 15 min after Fluo-4 AM loading. Then, during fluorescence recording, a pulse of 26RFa was administered at a final concentration of 10^−7 M. After subtraction of the mean fluorescence background, the baseline was normalized to 100%. Fluorescence peak values were determined for each concentration of compound.
(§3) Calcium experiments were performed in triplicate, and data, expressed as mean ± SEM of at least three distinct experiments, were analyzed with the Prism 8.0 software (Graphpad Software, San Diego, CA, USA). EC50 and the IC50 values were determined from concentration–response curves using a sigmoidal dose–response fit with variable slope from at least three independent determinations. Differences between 26RFa(20–26) and analog activities were analyzed by the Mann–Whitney test. p values < 0.05 were considered significant.

Assay [2] addresses T1, human QRFPR (hQRFPR). The assay is described as follows: Calcium mobilization assay, antagonist mode (26RFa-evoked [Ca2+]i increase in Gα16-hQRFPR-transfected CHO cells). Format: cell-based. To be noted: for inhibition at 10 µM: CHO, read-out: Imax (inhibition of 26RFa-evoked response); for inhibition at 10 µM / Imax (inhibition of 26RFa-evoked response): Inhibition at a maximal concentration of 10^−5 M, 10^−7 M 26RFa. On the procedure:
as §1, §2, §3

Assay [3] concerns the target T1, human QRFPR (hQRFPR). The arrangement: method as in PMID 22800498. The conditions noted are these: cited from earlier work.
[4] abbreviates: [Ca2+]i mobilization in Gα16-hQRFPR-transfected CHO cells, mean of at least three independent experiments performed in triplicate, read-out: EC50.
Where [5] appears, read: single prototype curve, triplicate, 10^−7 M 26RFa-evoked response, read-out: IC50 calculated from representative dose–inhibition curves (Figure 4).

`CC(C)(C)c1ccc(C[C@H](NC(=O)CNC(=O)CN)C(=O)N[C@@H](CO)C(=O)N[C@@H](Cc2ccccc2)C(=O)N[C@@H](CCCNC(=N)N)C(=O)N[C@@H](Cc2ccccc2)C(N)=O)cc1` [Compound 11, [ptBuPhe^22]26RFa(20–26)] (H-GG[Phe(4-tBu)]SFRF-NH2): the EC50 at human QRFPR (hQRFPR) [1] (setting [4]) was > 10 µM. Besides, on human QRFPR (hQRFPR) [2], the inhibition at 10 µM was 45 to 46% and the “Imax (inhibition of 26RFa-evoked response)” value is given as 45%. For the same compound, on human QRFPR (hQRFPR) [2] (inhibition of 10^−7 M 26RFa-evoked [Ca2+]i response, compounds inactive as agonists, ND = not detectable, read-out: IC50), the 50% inhibitory concentration (IC50) stood at 6.22 µM. The IC50 at human QRFPR (hQRFPR) [2] (setting [5]) was 4.49 µM. Turning to `N=C(N)NCCC[C@H](NC(=O)[C@H](Cc1ccccc1)NC(=O)[C@H](CO)NC(=O)[C@H](Cc1ccccc1)NC(=O)CNC(=O)CN)C(=O)N[C@H](Cc1c[nH]c2ccccc12)C(N)=O` [Compound 39, [DTrp^26]26RFa(20–26)] (H-GGFSFR[dW]-NH2), on human QRFPR (hQRFPR) [2], the inhibition at 10 µM fell in the range of 45 to 46% and the “Imax (inhibition of 26RFa-evoked response)” value was 46%. Moreover, the half-inhibitory concentration (IC50) on human QRFPR (hQRFPR) [2] (setting [5]) is 5.84 µM.

As to `N=C(N)NCCC[C@H](NC(=O)[C@H](Cc1ccccc1)NC(=O)[C@H](CO)NC(=O)C(c1ccccc1F)N1CCNCC1)C(=O)N[C@@H](Cc1ccccc1)C(N)=O` (stereo partly shown) [Compound 56, [Cmpi(2-FPhg)^22]26RFa(22–26)] (X8-SFRF-NH2), the EC50 on human QRFPR (hQRFPR) [1] (setting [4]) was > 10 µM. As for `N=C(N)NCCC[C@H](NC(=O)[C@H](Cc1ccccc1)NC(=O)[C@H](CO)NC(=O)C(c1ccc(C(F)(F)F)cc1)N1CCNCC1)C(=O)N[C@@H](Cc1ccccc1)C(N)=O` (stereo partly shown) [Compound 57, [Cmpi(4-TfmPhg)^22]26RFa(22–26)] (X7-SFRF-NH2), the EC50 at human QRFPR (hQRFPR) [1] (setting [4]) is > 10 µM.

`N=C(N)NCCC[C@H](NC(=O)[C@H](Cc1ccccc1)NC(=O)[C@H](CO)NC(=O)C(c1ccc(C(F)(F)F)cc1)N1CCNCC1)C(=O)N[C@@H](Cc1ccccc1)C(N)=O` (stereo partly shown) [Compound 58, [Cmpi(4-TfmPhg)^22]26RFa(22–26)] (X7-SFRF-NH2): the EC50 at human QRFPR (hQRFPR) [1] (setting [4]) is > 10 µM. On the same count and under the same terms, in the case of `COc1ccc(C(C(=O)N[C@@H](CO)C(=O)N[C@@H](Cc2ccccc2)C(=O)N[C@@H](CCCNC(=N)N)C(=O)N[C@@H](Cc2ccccc2)C(N)=O)N2CCNCC2)cc1` (stereo partly shown) [Compound 59, [Cmpi(4-MeOPhg)^22]26RFa(22–26)] (X5-SFRF-NH2) it was > 10 µM; in that of `COc1ccc(C(C(=O)N[C@@H](CO)C(=O)N[C@@H](Cc2ccccc2)C(=O)N[C@@H](CCCNC(=N)N)C(=O)N[C@@H](Cc2ccccc2)C(N)=O)N2CCNCC2)cc1` (stereo partly shown) [Compound 60, [Cmpi(4-MeOPhg)^22]26RFa(22–26)] (X5-SFRF-NH2), > 10 µM; in that of `COc1ccc(C(C(=O)N[C@@H](CO)C(=O)N[C@@H](Cc2ccccc2)C(=O)N[C@@H](CCCNC(=N)N)C(=O)N[C@@H](Cc2ccccc2)C(N)=O)N2CCNCC2)cc1OC` (stereo partly shown) [Compound 61, [Cmpi(3,4-diMeOPhg)^22]26RFa(22–26)] (X4-SFRF-NH2), > 10 µM. The same measure, in the same setting: in the case of `COc1ccc(C(C(=O)N[C@@H](CO)C(=O)N[C@@H](Cc2ccccc2)C(=O)N[C@@H](CCCNC(=N)N)C(=O)N[C@@H](Cc2ccccc2)C(N)=O)N2CCNCC2)cc1OC` (stereo partly shown) [Compound 62, [Cmpi(3,4-diMeOPhg)^22]26RFa(22–26)] (X4-SFRF-NH2) it was > 10 µM. Consider `N=C(N)NCCC[C@H](NC(=O)[C@H](Cc1ccccc1)NC(=O)[C@H](CO)NC(=O)C(c1cccnc1)N1CCNCC1)C(=O)N[C@@H](Cc1ccccc1)C(N)=O` (stereo partly shown) [Compound 63, [Cmpi(3-Pyg)^22]26RFa(22–26)] (X1-SFRF-NH2), for which the EC50 on human QRFPR (hQRFPR) [1] (setting [4]) is 4.99 µM. On the same count and under the same terms, in the case of `N=C(N)NCCC[C@H](NC(=O)[C@H](Cc1ccccc1)NC(=O)[C@H](CO)NC(=O)C(c1cccnc1)N1CCNCC1)C(=O)N[C@@H](Cc1ccccc1)C(N)=O` (stereo partly shown) [Compound 64, [Cmpi(3-Pyg)^22]26RFa(22–26)] (X1-SFRF-NH2) it was > 10 µM. Take GGFSFRF-NH2 [Compound 1, 26RFa(20–26)]: the EC50 at human QRFPR (hQRFPR) [1] (single prototype curve, triplicate, basal [Ca2+]i mobilization, read-out: EC50 calculated from representative dose–response curves (Figure 3)) was 1.07 µM.

Take “GGFSFRW-NH2 [Compound 10, [Trp^26]26RFa(20–26)]”: the EC50 on human QRFPR (hQRFPR) [1] (setting [4]) is 5.06 µM.

As to “GGFSWRF-NH2 [Compound 9, [Trp^24]26RFa(20–26)]”, the EC50 at human QRFPR (hQRFPR) [1] (setting [4]) amounted to 2.04 µM. The same measure, in the same setting: in the case of “GGWSFRF-NH2 [Compound 8, [Trp^22]26RFa(20–26)]” it was 1.98 µM.

On to [Cmpi^21]26RFa(21–26) [LV-2043], for which the “fold more potent than the reference heptapeptide 26RFa(20–26)” value on human QRFPR (hQRFPR) [3] was 5 fold.
